Patent publication US9023635B2, “Bacterial methods” (Imperial Innovations Limited, priority 2010, dated 2015)

Assays:
[1] = test system: PrkC-SAV expressing spores with biotinylated azide and alkyne; details: all click reaction components present; FIG. 26
Experimental: For all PrkC-SAV spore reactions, 100 nM of biotinylated ‘sensor’ was added to 100 μl reactions of spores at a concentration of OD600 ˜1. […] All reactions were carried out at room temperature. Controls for PrkC-SAV spore experiments omitted each reagent/parameter tested and the affect on germination was assessed. After addition of germinant, terbium was added to a final concentration of 5 μM and fluorescence visualized on a UV transilluminator (Biorad), at periodic time points. A DPA standard was imaged using known concentrations and correlated to fluorescent pixels.
PrkC-SAV expressing spores were incubated in the presence of biotinylated azide and alkyne groups with copper (FIG. 25). DPA release, i.e. germination, was measured by fluorescence in the presence of terbium as described in previous Examples.

[2] = test system: prkC-SAV spores with complementary biotinylated oligos; experiment: Germination of prkC-SAV spores with structure-switching anti-thrombin aptamers; type: cell-based; details: FIG. 30
Source text: Hall et al (2009) describe a method for protein detection using structure switching aptamers. The well-known example of thrombin as a target, described in the Introduction by Hall et al, was utilised to assess the use of bacterial spores as an alternative readout to release of a quencher from a fluorophore, as illustrated in FIGS. 29-30.

[3] = test system: bacterial spore with prkC intracellular and transmembrane domain and the extracellular EPOR domain; experiment: Germination of bacterial spores expressing chimeric prkC-EPOR receptor; type: cell-based, Bacillus subtilis
[4] = test system: bacterial spores in the absence of the chimeric protein; experiment: Germination of bacterial spores in the absence of the prkC-EPOR chimeric protein; type: cell-based, Bacillus subtilis
[5] = test system: prkC-SAV spores with biotinylated aptamers; experiment: Germination of prkC-SAV spores with biotinylated anti-PDGF aptamers; type: cell-based; details: FIG. 28
Source text: Presence of the target protein results in binding of the protein by the aptamers, dimerisation of the prkC proteins, and germination of the spores, which can be detected, for example, using methods described in previous Examples.

O=S(=O)([O-])[O-].[Cu+2] [copper, copper (II) sulfate]
germination (DPA release) versus controls omitting azide/alkyne or copper [1]: significant increase in germination

thrombin
target protein concentration of optimal detection [2]: 100 nm

erythropoietin [EPO]
germination efficiency with increased concentration ([3]; FIG. 13, increased concentration of EPO): increase in germination efficiency
germination of spores ([3]; spores expressing prkC-EPOR chimera): stimulation of germination
germination of spores [4]: does not stimulate the germination

B1: PDGF-BB: platelet derived growth factor, in the BB homodimer form (protein, UniProt P01127 82-190, looked up)
Platelet-derived growth …: SLGSLTIAEPAMIAECKTRTEVFEISRRLIDRTNANFLVWPPCVEVQRCSGCCNNRNVQCRPTQVQLRPVQVRKIEIVRKKPIFKKATVTLEDHLACKCETVAAARPVT
modifications: BB homodimer
notes: platelet derived growth factor, in the BB homodimer form
target protein concentration of optimal detection [5]: 0.1 nM
